This passage reports T/C results from PubChem BioAssay AID270 (DTP/NCI, 2004).

The subject of the assay is BDF1 mice, s.c. Lewis lung carcinoma, T/C %. Nature of the assay: NCI In Vivo Anticancer Drug Screen. Data for tumor model Lewis Lung Carcinoma (subcutaneous) in B6D2F1 (BDF1) mice. An outline of the steps: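 Antitumor effect in vivo is scored from survival or tumor burden, reported as treated relative to vehicle controls.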
Setting [1] is: endpoint: median survival time, dose: 1.0 mg/kg/injection, schedule: Q01DX009 (ip), vehicle: Klucel (hydroxypropylcellulose) (HPC), higher = longer survival.

Values joined by “and” are separate entries in the source; they are usually repeats but may differ in a detail not shown here. Equal values may be shown once. Inconclusive results are not listed. *1 amine or outer side, *2 acyl side, *3 side chain or, on linkers, in order; H or OH if unused. Where a SMILES comes first, the peptide text is derived from it. Bridges are numbered along the chain shown (N, C = ends). Roman numbers before positions name the chains, in order. [ ]: non-standard residue; d: D form. Actinocin(1to9) = Cc1c2oc3c(C)ccc(C(=O)[*:2])c3nc-2c(C(=O)[*:1])c(N)c1=O; NMeV = CN[CH](C(=O)O)C(C)C; Sar = CNCC(=O)O

Take `CCC(C)C1NC(=O)C(NC(=O)c2c3nc4c(C(=O)NC5C(=O)NC(C(C)CC)C(=O)N6CCCC6C(=O)N(C)CC(=O)N(C)C(C(C)C)C(=O)OC5C)ccc(C)c4oc-3c(C)c(=O)c2N)C(C)OC(=O)C(C(C)C)N(C)C(=O)CN(C)C(=O)C2CCCN2C1=O` (centres undefined) (I: TIP[Sar][NMeV] / II: TIP[Sar][NMeV]; ester I:1-I:C, II:1-II:C; linker I:N-II:N via Actinocin(1to9); configuration not given here): the T/C runs as follows: (endpoint: median survival time, dose: 12.5 micrograms/kg/injection, schedule: Q01DX009 (ip), vehicle: water, higher = longer survival) 112 % of control; (endpoint: median survival time, dose: 25.0 micrograms/kg/injection, schedule: Q01DX009 (ip), vehicle: water, higher = longer survival) 109 % of control; (endpoint: median survival time, dose: 50.0 micrograms/kg/injection, schedule: Q01DX009 (ip), vehicle: water, higher = longer survival) 115 % of control; (endpoint: median survival time, dose: 75.0 micrograms/kg/injection, schedule: Q04DX003 (ip), vehicle: water, higher = longer survival) 105 % of control; (endpoint: median survival time, dose: 150.0 micrograms/kg/injection, schedule: Q04DX003 (ip), vehicle: water, higher = longer survival) 111 % of control; (endpoint: median survival time, dose: 300.0 micrograms/kg/injection, schedule: Q04DX003 (ip), vehicle: water, higher = longer survival) 116 % of control.

For `CCN(CC)CC(C)Nc1ccc(C)c2sc3ccccc3c(=O)c12` (centres undefined), the T/C by setting is: (endpoint: mean tumor weight, dose: 10.0 mg/kg/injection, schedule: Q01DX011 (ip), vehicle: other, higher = larger tumour) 104 % of control; (endpoint: mean tumor weight, dose: 40.0 mg/kg/injection, schedule: Q01DX011 (ip), vehicle: other, higher = larger tumour) 68 % of control; (endpoint: mean tumor weight, dose: 160.0 mg/kg/injection, schedule: Q01DX011 (ip), vehicle: other, higher = larger tumour) 30 % of control.

On to `COc1c(OC)c(OC)c2c(=O)cc(-c3ccc(OC(C)=O)cc3)oc2c1OC`, for which the T/C was 97 % of control (endpoint: mean tumor weight, dose: 50.0 mg/kg/injection, schedule: Q01DX010 (sc), vehicle: steriod suspending solution, higher = larger tumour); 74 % of control (endpoint: mean tumor weight, dose: 100.0 mg/kg/injection, schedule: Q01DX010 (sc), vehicle: steriod suspending solution, higher = larger tumour); 76 % of control (endpoint: mean tumor weight, dose: 200.0 mg/kg/injection, schedule: Q01DX010 (sc), vehicle: steriod suspending solution, higher = larger tumour); 77 % of control (endpoint: mean tumor weight, dose: 400.0 mg/kg/injection, schedule: Q01DX010 (sc), vehicle: steriod suspending solution, higher = larger tumour).

For `O=NN(CCCl)C(=O)NC1CCC(=O)NC1=O` (centres undefined), the T/C by setting is: (endpoint: median survival time, dose: 0.5 mg/kg/injection, schedule: Q01DX009 (ip), vehicle: Klucel (hydroxypropylcellulose) (HPC), higher = longer survival) 107 % of control and 110 % of control; under setting [1], 100 % of control and 105 % of control; (endpoint: median survival time, dose: 1.25 mg/kg/injection, schedule: Q01DX009 (ip), vehicle: other, higher = longer survival) 122 % of control; (endpoint: median survival time, dose: 2.0 mg/kg/injection, schedule: Q01DX009 (ip), vehicle: Klucel (hydroxypropylcellulose) (HPC), higher = longer survival) 101 % of control and 117 % of control; (endpoint: median survival time, dose: 2.0 mg/kg/injection, schedule: Q02DX009 (ip), vehicle: saline with Tween-80, higher = longer survival) 90 % of control; (endpoint: median survival time, dose: 3.0 mg/kg/injection, schedule: Q02DX009 (ip), vehicle: saline with Tween-80, higher = longer survival) 93 % of control. Further, the T/C runs as follows: (endpoint: median survival time, dose: 4.0 mg/kg/injection, schedule: Q01DX009 (ip), vehicle: Klucel (hydroxypropylcellulose) (HPC), higher = longer survival) 182 % of control; (endpoint: median survival time, dose: 5.0 mg/kg/injection, schedule: Q01DX001 (ip), vehicle: gum acacia, higher = longer survival) 89 % of control; (endpoint: median survival time, dose: 5.0 mg/kg/injection, schedule: Q01DX001 (ip), vehicle: other, higher = longer survival) 120 % of control; (endpoint: median survival time, dose: 5.0 mg/kg/injection, schedule: Q01DX001 (ip), vehicle: saline, higher = longer survival) 96 % of control; (endpoint: median survival time, dose: 6.0 mg/kg/injection, schedule: Q04DX003 (ip), vehicle: saline with Tween-80, higher = longer survival) 93 % of control; (endpoint: median survival time, dose: 10.0 mg/kg/injection, schedule: Q01DX001 (ip), vehicle: other, higher = longer survival) 107 % of control and 124 % of control. Besides, the T/C is 111 % of control (endpoint: median survival time, dose: 10.0 mg/kg/injection, schedule: Q01DX001 (ip), vehicle: saline with Tween-80, higher = longer survival); 101 % of control (endpoint: median survival time, dose: 10.0 mg/kg/injection, schedule: Q01DX001 (ip), vehicle: saline, higher = longer survival); 120 % of control (endpoint: median survival time, dose: 10.0 mg/kg/injection, schedule: Q04DX003 (ip), vehicle: saline with Tween-80, higher = longer survival); 108 % of control (endpoint: median survival time, dose: 15.0 mg/kg/injection, schedule: Q01DX001 (ip), vehicle: saline with Tween-80, higher = longer survival); 208 % of control (endpoint: median survival time, dose: 22.5 mg/kg/injection, schedule: Q01DX001 (ip), vehicle: saline with Tween-80, higher = longer survival); 168 % of control (endpoint: median survival time, dose: 26.0 mg/kg/injection, schedule: Q01DX001 (ip), vehicle: gum acacia, higher = longer survival). For the same molecule, the T/C (endpoint: median survival time, dose: 40.0 mg/kg/injection, schedule: Q01DX001 (ip), vehicle: saline, higher = longer survival) was 156 % of control; the T/C (endpoint: median tumor weight (est.), dose: 7.6 mg/kg/injection, schedule: Q01DX001 (ip), vehicle: gum acacia, higher = larger tumour) was 93 % of control; the T/C (endpoint: median tumor weight (est.), dose: 15.0 mg/kg/injection, schedule: Q01DX001 (ip), vehicle: gum acacia, higher = larger tumour) was 10 % of control.

In the case of `CC[n+]1ccc(Nc2ccc(NC(=O)c3ccc(Nc4cc[n+](CC)c5ccc(N)cc45)cc3)cc2)cc1`, the T/C (endpoint: mean tumor weight, dose: 0.5 mg/kg/injection, schedule: Q01DX011 (ip), vehicle: saline, higher = larger tumour) is 86 % of control; the T/C (endpoint: mean tumor weight, dose: 1.0 mg/kg/injection, schedule: Q01DX011 (ip), vehicle: saline, higher = larger tumour) was 107 % of control; the T/C (endpoint: mean tumor weight, dose: 2.0 mg/kg/injection, schedule: Q01DX011 (ip), vehicle: saline, higher = larger tumour) was 73 % of control; the T/C (endpoint: mean tumor weight, dose: 4.0 mg/kg/injection, schedule: Q01DX011 (ip), vehicle: saline, higher = larger tumour) is 33 % of control.

On to `C[n+]1ccc(Nc2ccc(NC(=O)c3ccc(Nc4cc[n+](C)c5ccc(N)cc45)cc3)cc2)cc1`, for which the T/C under setting [1] was 167 % of control and the T/C (endpoint: median survival time, dose: 8.0 mg/kg/injection, schedule: Q01DX009 (ip), vehicle: Klucel (hydroxypropylcellulose) (HPC), higher = longer survival) is 244 % of control.

For `COc1ccccc1NC(=O)CSC(N)=O`, the T/C (endpoint: mean tumor weight, dose: 125.0 mg/kg/injection, schedule: Q01DX011 (ip), vehicle: carboxymethylcellulose (CMC), higher = larger tumour) was 97 % of control and the T/C (endpoint: mean tumor weight, dose: 250.0 mg/kg/injection, schedule: Q01DX011 (ip), vehicle: carboxymethylcellulose (CMC), higher = larger tumour) was 47 % of control.

On to `CC1CCC[N-]C1.CC1CCC[N-]C1.CC1CCC[N-]C1.CC1CCC[N-]C1.[Cl][Rh][Cl]` (centres undefined), for which the T/C was 102 % of control (endpoint: median survival time, dose: 3.0 mg/kg/injection, schedule: Q01DX009 (ip), vehicle: Klucel (hydroxypropylcellulose) (HPC), higher = longer survival) and 91 % of control (endpoint: median survival time, dose: 6.0 mg/kg/injection, schedule: Q01DX009 (ip), vehicle: Klucel (hydroxypropylcellulose) (HPC), higher = longer survival).

As to `CC(=O)OC1CCC(NC(=O)N(CCCl)N=O)CC1` (centres undefined), the T/C (endpoint: median survival time, dose: 24.0 mg/kg/injection, schedule: Q01DX001 (ip), vehicle: other, higher = longer survival) was 95 % of control.

In the case of `C=C1C(=O)O[C@@H]2/C=C(/C)[C@@]3(O)C=C[C@](C)(C[C@@H](OC(=O)/C(=C\C)COC(C)=O)[C@@H]12)O3`, the T/C is, setting by setting: (endpoint: median survival time, dose: 0.03 mg/kg/injection, schedule: Q01DX009 (ip), vehicle: carboxymethylcellulose (CMC), higher = longer survival) 100 % of control; (endpoint: median survival time, dose: 0.06 mg/kg/injection, schedule: Q01DX009 (ip), vehicle: carboxymethylcellulose (CMC), higher = longer survival) 94 % of control; (endpoint: median survival time, dose: 0.12 mg/kg/injection, schedule: Q01DX009 (ip), vehicle: carboxymethylcellulose (CMC), higher = longer survival) 113 % of control; (endpoint: median survival time, dose: 0.25 mg/kg/injection, schedule: Q01DX009 (ip), vehicle: carboxymethylcellulose (CMC), higher = longer survival) 87 % of control; (endpoint: median survival time, dose: 0.5 mg/kg/injection, schedule: Q01DX009 (ip), vehicle: carboxymethylcellulose (CMC), higher = longer survival) 100 % of control.

Regarding `O=C1c2ccccc2CCc2ccccc21`, the T/C by setting is: (endpoint: mean tumor weight, dose: 133.0 mg/kg/injection, schedule: Q01DX011 (ip), vehicle: other, higher = larger tumour) 91 % of control; (endpoint: mean tumor weight, dose: 200.0 mg/kg/injection, schedule: Q01DX011 (ip), vehicle: other, higher = larger tumour) 173 % of control; (endpoint: mean tumor weight, dose: 450.0 mg/kg/injection, schedule: Q01DX011 (ip), vehicle: other, higher = larger tumour) 74 % of control.

As for `[Cl][Ni+2][Cl].[NH-]CCN1CC1`, the T/C by setting is: (endpoint: median survival time, dose: 1.56 mg/kg/injection, schedule: Q01DX009 (ip), vehicle: saline, higher = longer survival) 103 % of control and 115 % of control; (endpoint: median survival time, dose: 12.5 mg/kg/injection, schedule: Q01DX009 (ip), vehicle: saline, higher = longer survival) 100 % of control.

Take `O=NN(CCCl)C(=O)Nc1ccc(I)cc1`: the T/C is 92 % of control (endpoint: median survival time, dose: 3.12 mg/kg/injection, schedule: Q01DX009 (ip), vehicle: Klucel (hydroxypropylcellulose) (HPC), higher = longer survival); 97 % of control (endpoint: median survival time, dose: 6.25 mg/kg/injection, schedule: Q01DX009 (ip), vehicle: Klucel (hydroxypropylcellulose) (HPC), higher = longer survival); 101 % of control (endpoint: median survival time, dose: 12.5 mg/kg/injection, schedule: Q01DX009 (ip), vehicle: Klucel (hydroxypropylcellulose) (HPC), higher = longer survival); 108 % of control (endpoint: median survival time, dose: 50.0 mg/kg/injection, schedule: Q01DX009 (ip), vehicle: Klucel (hydroxypropylcellulose) (HPC), higher = longer survival).
